The results in this text go back to ChEMBL document CHEMBL3872237, “Nitric oxide-donating derivatives of hederacolchiside A1: Synthesis and biological evaluation in vitro and in vivo as potential anticancer agents” (Bioorg Med Chem Lett, 2017).

Data set [1] in a line: Growth inhibition of human SMMC7721 cells after 48 hrs by MTT assay. It counts as functional, cell-based. The conditions noted are these: SMMC-7721, 48 h. In general terms: Tetrazolium assays rely on reduction of a dye to a coloured formazan, in cell work by metabolically active cells.
A short description of data set [2]: Growth inhibition of human NCI-H460 cells after 48 hrs by MTT assay. It counts as functional, cell-based. The conditions noted are these: NCI-H460, 48 h.
Data set [3] is described as follows: Growth inhibition of human U251 cells after 48 hrs by MTT assay. It counts as functional, cell-based. As to conditions: U-251, 48 h; call rule not given here.
Data set [4] is described as follows: Growth inhibition of human HCT116 cells after 48 hrs by MTT assay. In kind it is functional, cell-based. As to conditions: HCT-116, 48 h.
Data set [5] in a line: Induction of NO release in DMSO incubated up to 6 hrs by Griess assay. In kind it is physicochemical.
The nature of data set [6]: Haemolytic activity in New Zealand rabbit erythrocytes after 60 mins. The conditions noted are these: read-out: HD50. It counts as ADME, cell-based, Oryctolagus cuniculus, Erythrocyte.
Data set [7] in a line: Solubility of the compound. It counts as physicochemical.
The test system of data set [8] is Mus musculus. As to the kind of experiment: Acute toxicity in mouse assessed as death at >168 mg/kg measured after 14 days. In kind it is organism-based. The conditions noted are these: in vivo, 336 h.
Data set [9] can be described thus: Antitumor activity against mouse H22 cells xenografted in nude Kunming mouse assessed as tumor growth inhibition at 10 mg/kg/day, iv for 14 days measured 24 hrs post last dose relative to control. As to conditions: read-out: TGI. It counts as functional.
Data set [10] can be described thus: Antitumor activity against mouse H22 cells xenografted in nude Kunming mouse assessed as tumor growth inhibition at 20 mg/kg/day, iv for 14 days measured 24 hrs post last dose relative to control. It counts as functional. As to conditions: read-out: TGI.
Data set [11] has as its system Mus musculus. Briefly: Toxicity in nude Kunming mouse xenografted with mouse H22 cells assessed as mouse death at 10 to 20 mg/kg/day, iv for 14 days measured 24 hrs post last dose. In kind it is organism-based. The conditions noted are these: in vivo.
In data set [12] the test system is Mus musculus. Briefly: Acute toxicity in mouse assessed as death at <8 mg/kg measured up to 1 hr. In kind it is organism-based. As to conditions: in vivo.
Data set [13] is described as follows: Antitumor activity against mouse H22 cells xenografted in nude Kunming mouse assessed as tumor growth inhibition at 6 mg/kg/3 days for 5 times administered iv measured 24 hrs post last dose relative to control. In kind it is functional. The conditions noted are these: read-out: TGI.
Data set [14] can be described thus: Antiproliferative activity against human SMMC7721 cells after 48 hrs by resazurin reduction assay. As to conditions: SMMC-7721, 48 h. In kind it is functional, cell-based. A general note: The colour change of resazurin is a common sign of viable cells or microbes.
A short description of data set [15]: Antiproliferative activity against human NCI-H460 cells after 48 hrs by resazurin reduction assay. In kind it is functional, cell-based. The conditions noted are these: NCI-H460, 48 h.
Data set [16] is described as follows: Antiproliferative activity against human U251 cells after 48 hrs by resazurin reduction assay. In kind it is functional, cell-based. As to conditions: U-251, 48 h.
Data set [17] is described as follows: Antiproliferative activity against human HCT116 cells after 48 hrs by resazurin reduction assay. It counts as functional, cell-based. As to conditions: HCT-116, 48 h.

Broadly, the IC50 is the concentration that gives 50% inhibition.

As for `C[C@@H]1O[C@@H](O[C@H]2[C@H](O[C@H]3CC[C@]4(C)[C@H]5CC=C6[C@@H]7CC(C)(C)CC[C@]7(C(=O)OCCCOc7no[n+]([O-])c7S(=O)(=O)c7ccccc7)CC[C@@]6(C)[C@]5(C)CC[C@H]4C3(C)C)OC[C@H](O[C@@H]3O[C@H](CO)[C@@H](O)[C@H](O)[C@H]3O)[C@@H]2O)[C@H](O)[C@H](O)[C@H]1O`, the IC50 was determined as 1.9 µM in [1], 3.1 µM in data set [2], 1.6 µM in [3] and 6.5 µM in data set [4]. For the same compound, the Activity result is recorded as “Active” in data set [5], “Non-Toxic” in the data set on Mus musculus [8] and “Non-Toxic” in the data set with Mus musculus [11]. In addition, the HC50 at 1 h in [6] came out at 280 µM. Moreover, in data set [7], the solubility entry is “Insoluble”. Also, the inhibition in vivo at 10 mg/kg/day in data set [9] was found to be 38.3%. Further, the inhibition in vivo at 20 mg/kg/day in data set [10] was determined as 51.5%.

Consider `C[C@@H]1O[C@@H](O[C@H]2C(O[C@H]3CC[C@]4(C)[C@H]5CC=C6[C@@H]7CC(C)(C)CC[C@]7(C(=O)O)CC[C@@]6(C)[C@]5(C)CC[C@H]4C3(C)C)OC[C@H](O[C@@H]3O[C@H](CO)[C@@H](O)[C@H](O)[C@H]3O)[C@@H]2O)[C@H](O)[C@H](O)[C@H]1O` (single isomer, unassigned) [HEDERACOLCHISIDE A1], for which the IC50 is 2.8 µM in data set [1]; 3.7 µM in data set [2]; 2.2 µM in data set [3]; 8.4 µM in data set [4]; 2.2 to 8.4 µM in [14]; 2.2 to 8.4 µM in data set [15]. Also, the IC50 in [16] and in data set [17] was 2.2 to 8.4 µM throughout. Moreover, the HC50 at 1 h in data set [6] was determined as 6.7 µM. Also, the solubility entry in [7] was “Insoluble”. Also, in the data set on Mus musculus [12], the Activity result is given as “Toxic”. In addition, in [13], the inhibition in vivo at 6 mg/kg was 47.5%.

In the case of `O=[N+]([O-])OCC(CO[N+](=O)[O-])O[N+](=O)[O-]` [NITROGLYCERIN], the result in data set [5] was Active.

On to `C[C@@H]1O[C@@H](O[C@H]2C(O[C@H]3CC[C@]4(C)[C@H]5CC=C6[C@@H]7CC(C)(C)CC[C@]7(C(=O)OCCCCOc7no[n+]([O-])c7S(=O)(=O)c7ccccc7)CC[C@@]6(C)[C@]5(C)CC[C@H]4C3(C)C)OC[C@H](O[C@@H]3O[C@H](CO)[C@@H](O)[C@H](O)[C@H]3O)[C@@H]2O)[C@H](O)[C@H](O)[C@H]1O` (single isomer, unassigned), for which the IC50 in [1] amounted to 2.6 µM; in data set [2], 3.4 µM; in [3] it was 2.1 µM; in [4], 7.3 µM. Moreover, the result in [5] was Active.

For the compound `CC(CCOc1no[n+]([O-])c1S(=O)(=O)c1ccccc1)OC(=O)[C@]12CCC(C)(C)C[C@H]1C1=CC[C@@H]3[C@@]4(C)CC[C@H](O[C@@H]5OC[C@H](O[C@@H]6O[C@H](CO)[C@@H](O)[C@H](O)[C@H]6O)[C@H](O)[C@H]5O[C@@H]5O[C@@H](C)[C@H](O)[C@@H](O)[C@H]5O)C(C)(C)[C@@H]4CC[C@@]3(C)[C@]1(C)CC2` (some centres not stated), the IC50 in data set [1] worked out at 3.7 µM; in [2], 6.2 µM; in data set [3] it was 2.3 µM; in data set [4] it was 11.2 µM.

Consider `C[C@@H]1O[C@@H](O[C@H]2C(O[C@H]3CC[C@]4(C)[C@H]5CC=C6[C@@H]7CC(C)(C)CC[C@]7(C(=O)OC/C=C/COc7no[n+]([O-])c7S(=O)(=O)c7ccccc7)CC[C@@]6(C)[C@]5(C)CC[C@H]4C3(C)C)OC[C@H](O[C@@H]3O[C@H](CO)[C@@H](O)[C@H](O)[C@H]3O)[C@@H]2O)[C@H](O)[C@H](O)[C@H]1O` (single isomer, unassigned), for which the IC50 in data set [1] came to 4.5 µM; in [2], 6.8 µM; in data set [3], 3.1 µM; in data set [4] it was 10.1 µM.
